We go through 2 compounds from patent US10344279B2, “Methods for the prevention and the treatment of extracapillary glomerulonephritis” (INSERM (Institut National de la Sante et de la Recherche …, priority 2014, dated 2019).

One data set concerns STAT3. Put plainly: STAT3 protein level in anti-miR-92a transfected podocytes. Format: cell-based, mouse. The conditions noted are these: data not shown. Here is the method:
Anti-miR-Control#1 was used as control (All from Ambion, 50 nM).

Data set [1] concerns miR-17, miR-18a, miR-19a and miR-20a. Put plainly: RT-qPCR of other miR-17-92 cluster members in isolated glomeruli of NTS-challenged mice. Format: in vivo. The conditions noted are these: antagomiR 12 mg/kg i.v., preventive strategy; 10 days after NTS. Here is the method: […] U6 snRNA was used as endogenous control.
(§1) For preventive strategy, antagomiR treatment (12 mg/kg) started 3 days before NTS injection. AntagomiRs (VBC biotech, Vienna) were delivered by retro-orbital i.v. injections under brief anesthesia. Second and third injections were performed on days 1 and 3 with NTS injection. For curative strategy, antagomir were injected on days 4, 5 and 8 after NTS. A scramble antagomiR (Antagomir-Control) was used as control. The sequences were obtained from previously published manuscript (66). In the miR-92 antagomir and control antagomir, the 2′O RNA base are methylated followed by first two bases and last 3 bases are phosphorothiated to increase the stability of antagomir from degradation. In addition, a cholesterol-TEG was added at the 3′ for easy entry of antagomir into the cells. AntagomiR-Control (SEQ ID NO: 7, anti-miR-ctrl): 5′-[…]-3′ and antagomiR-92a (SEQ ID NO: 8, anti-miR-92a): 5′-[…]-3′ as shown to be effective after in vivo administration in kidneys (34, 67). Saline-treated mice were used as control of the scramble antagomiR.
For orientation: Real-time PCR tracks product formation cycle by cycle.

For data set [2], the system named is p57. The experiment in a line: p57 protein expression in transfected podocytes (western blot, immunofluorescence). It counts as cell-based, mouse. The conditions noted are these: anti-miR-92a transfected podocytes. Here is the method: (§2) Deparaffinized kidney sections were incubated for 30 minutes at 95° C. in the target retrieval solution (S1699, Dako), then in peroxidase blocking reagent (S2001, Dako), blocked in PBS containing 5% BSA and immunostained against phospho-STAT3 (Tyr705) (Cell Signaling Technology) and phospho-STAT3 (Tyr705) (Millipore), STAT3 (Cell Signaling Technology), podocalyxin (R&D systems), Ki-67 (Abeam) and p57 (Santa Cruz Technology). […] For STAT3 and podocalyxin immunofluorescence, primary antibody incubation was followed by a secondary rabbit anti-goat IgG AF488-conjugated antibody (Invitrogen, 1:400) and a secondary rabbit anti-goat IgG AF594-conjugated antibody (Invitrogen, 1:400) respectively. Podocyte culture cells were immunostained against podocin (ab50339 Abeam), nephrin (ab58968 Abeam), WTI (ab15249 Abeam) or p57 (Santa Cruz Biotechnology). The nuclei were stained using DAPI. Images were obtained with an Axioimager Z1 apotome (Zeiss).
After extraction from glomeruli or podocytes with lysis buffer, proteins were quantified by BCA protein assay kit (iNtRON Biotechnology). Samples were resolved on 4-12% Bis-Tris Criterion XT gels (Bio-Rad) then transferred to a polyvinylidene difloride membrane. […] Protein loading was monitored by using the rat anti-tubulin antibody (Abeam). […] Densitometric analysis with ImageJ software was used for quantification. […]
(In general: In western blotting, separated proteins are transferred to a membrane and probed.)

The test system of data set [3] is p57. Put plainly: p57 immunostaining on kidney sections of NTS-challenged mice. Format: in vivo. The conditions noted are these: NTS-induced decrease; anti-miR-92a administration. As to the method: as §2
For preventive strategy, antagomiR treatment (12 mg/kg) started 3 days before NTS injection. AntagomiRs (VBC biotech, Vienna) were delivered by retro-orbital i.v. injections under brief anesthesia. Second and third injections were performed on days 1 and 3 with NTS injection. For curative strategy, antagomir were injected on days 4, 5 and 8 after NTS. A scramble antagomiR (Antagomir-Control) was used as control. […]

A further data set has as its system NTS-challenged mice. The experiment in a line: NTS-induced crescentic glomerulonephritis (RPGN): albuminuria, BUN, crescentic glomeruli. Format: in vivo. Here is the method:
(§3) Podocyte-specific disruption of Stat3 mice were generated by crossing podocin-Cre positive mice (63) with Stat3 floxed mice (64) on C57BL6/J background. Their age-matched littermates with no deletion of Stat3 in any cells are considered as controls. […] Stattic (25 mg/kg) was administered in i.p. way every other day for 10 days. 10 weeks old 129S2/SvPasCr male mice were randomly treated with Stattic and were compared to vehicle-treated (DMSO) littermates.
(§4) The glomerulonephritis was induced on male mice (10-12 weeks of age) by intravenous injection of 15 μL of sheep anti-glomerular basement membrane (GBM) nephrotoxic serum (NTS), which was diluted with 85 μL of sterile phosphate buffer solution. Serum injections were repeated twice (on days 2 and 3) at 6 μL/g of body weight and 7 μL/g respectively.
Urinary creatinine and blood urea nitrogen (BUN) concentrations were analyzed by a standard colorimetric method (Olympus AU400) at the Biochemistry Laboratory of Institut Claude Bernard (IFR2, Faculté de Médecine Paris Diderot). Urinary albumin excretion was measured using a specific ELISA assay for quantitative determination of albumin in mouse urine (CellTrend GmbH).
Kidneys were harvested and fixed in 4% formal. Paraffin-embedded sections (5 μm thick) were stained by Masson's trichrome to evaluate kidney morphology and determine proportion of crescentic glomeruli by a blinded examination on at least 50 glomeruli per section.
as §1

The test system of the next data set is miR-92a. The experiment in a line: RT-qPCR for miR-92a in transfected primary podocytes. It counts as cell-based, mouse. To be noted: transfection with anti-miR-92a inhibitor (Ambion, 50 nM); normalized to U6.
In another data set the test system is primary podocytes. Put plainly: Wound assay of podocyte migration. It counts as cell-based, mouse. The conditions noted are these: Stattic 2 μM, migration within 12 hours. As to the method:
After 4 days of primary culture, podocytes were trypsinized then plated into μ-Dish 35 mm high with Culture-Insert (Ibidi). Ibidi's wounding inserts were used for cell migration studies. The coverage of the 500-μm gap was assessed after 12 hours of culture and podocyte migration area was quantified using ImageJ software. The effects of HB-EGF (10 ng/mL, Preprotech) or AG1478 (1 μM, Calbiochem) or anti-mIL-6 monoclonal antibody MP5-20F3 (10 μg/mL, eBiosciences) or Stattic (2 μM, Calbiochem) on differentiated podocytes was applied during 16 hours. After stimulation, podocytes were scrapped in Phosphosafe buffer for protein extraction or in RLT buffer for total RNA extraction.

A further data set has as its system phospho-STAT3 (Tyr705). Put plainly: Western blot of phospho-STAT3 in glomeruli / kidney cortex of NTS-challenged mice. Format: in vivo. To be noted: Stattic 25 mg/kg i.p. every other day, started with NTS; 129S2 mice; after 10 days of RPGN; vs vehicle. As to the method: as §3, §4
Mouse kidneys were extracted, minced, and digested in 2 mg/mL collagenase I solution (Gibco) in RPMI 1640 (Invitrogen) at 37° C. for 3 minutes, then filtered through a 70-μm cell strainer and one more through a 40-μm cell strainer. […] Podocyte outgrowth area was quantified at day 4 using ImageJ software.
After extraction from glomeruli or podocytes with lysis buffer, proteins were quantified by BCA protein assay kit (iNtRON Biotechnology). […] Protein loading was monitored by using the rat anti-tubulin antibody (Abeam). […] Densitometric analysis with ImageJ software was used for quantification.

Where [4] appears, read: antagomiR 12 mg/kg i.v., preventive strategy, 10 days after NTS, vs anti-miR-ctrl or vehicle.
Setting [5] is: Stattic 25 mg/kg i.p. every other day, day 10 after NTS, 129S2 mice.

In the case of “anti-miR-92a: 2′O-methylated, end-phosphorothioated antagomir with 3′ cholesterol-TEG, SEQ ID NO: 8, 5′-CAGGCCGGGACAAGUGCAAUA-3′ (VBC biotech) (listed as RNA, chemistry not fully specified)”, in the data set on STAT3, the STAT3 protein level result was “did not affect”. In data set [1], the “levels of others miR of 17-92 cluster in isolated glomeruli” value is “without modify”. In the data set with p57 [2], the p57 expression entry was “increase”. The “p57 expression in glomeruli” value with p57 [3] is “rescued”. In the data set on NTS-challenged mice (setting [4]), the “kidney dysfunction (blood urea nitrogen concentrations)” value is reported as “strong decrease” and the urinary albumin excretion result is given as “strong decrease”. In addition, the glomerular crescents formation with NTS-challenged mice (antagomiR 12 mg/kg i.v., preventive strategy, vs NTS+anti-miR-ctrl, P<0.05) is -44%. The “results in curative strategy (miR-92a expression, albuminuria, BUN, p57-positive cells)” value in the data set with NTS-challenged mice (antagomir injection on days 4, 5 and 8 after NTS, read at day 10) was “validated”. In the data set with miR-92a, the “miR-92a expression in primary culture of podocytes, change” value is on record as −71%.
As to `O=[N+]([O-])c1ccc2c(c1)S(=O)(=O)C=C2` [Stattic], the “migratory phenotype of podocytes” value with primary podocytes is recorded as “inhibited”. Also, in the data set on primary podocytes (listed as STAT3 inhibitor), the “migratory phenotype of podocytes” value is “little or no effect”. The “STAT3 (Tyr705) phosphorylation in glomeruli” value with phospho-STAT3 (Tyr705) is listed as “significantly reduced”. Further, in the data set on NTS-challenged mice (setting [5]), the “albuminuria (urinary albumin excretion rate)” value was “trend to decreased”, the “alleviation of the rise in blood urea nitrogen (BUN) concentrations” value is given as 50% and the “proportion of crescentic glomeruli” value was “reduced”.
